In ChEMBL document CHEMBL1649114, “Effect of concomitant artesunate administration and cytochrome P4502C8 polymorphisms on the pharmacokinetics of amodiaquine in Ghanaian children with uncomplicated malaria” (Antimicrob Agents Chemother, 2008):

Columns and labels:
Parameters in all cases: dose 10 mg/kg, route oral
Homo sapiens [1] = assay: AUC in children with uncomplicated malaria assessed as desethylamodiaquine at 10 mg/kg, po administered as single dose; format: ADME, organism-based, Plasma; conditions: in vivo
Homo sapiens [2] = assay: Cmax in children with uncomplicated malaria assessed as desethylamodiaquine at 10 mg/kg, po administered as single dose; format: ADME, organism-based; conditions: in vivo
Homo sapiens [3] = assay: Tmax in children with uncomplicated malaria assessed as desethylamodiaquine at 10 mg/kg, po administered as single dose; format: ADME, organism-based; conditions: in vivo
Homo sapiens [4] = assay: Toxicity in children with uncomplicated malaria assessed as bradycardia at 10 mg/kg, po administered as single dose; format: organism-based; conditions: in vivo
Homo sapiens [5] = assay: Toxicity in children with uncomplicated malaria assessed as pruritus at 10 mg/kg, po administered as single dose; format: organism-based; conditions: in vivo
Homo sapiens [6] = assay: Toxicity in children with uncomplicated malaria assessed as elevated serum aminotransferase levels at 10 mg/kg, po administered as single dose; format: organism-based; conditions: in vivo
Homo sapiens [7] = assay: Toxicity in children with uncomplicated malaria assessed as neutropenia at 10 mg/kg, po administered as single dose; format: organism-based; conditions: in vivo
Homo sapiens [8] = assay: Toxicity in children with uncomplicated malaria assessed as excessive sleepiness at 10 mg/kg, po administered as single dose; format: organism-based; conditions: in vivo
Plasma = assay: Plasma concentration in children with uncomplicated malaria assessed as desethylamodiaquine at 10 mg/kg, po administered as single dose measured on day 3; format: ADME, organism-based; conditions: human, in vivo

Row | AUC (Homo sapiens [1]) [ng·h/mL] | Cmax (Homo sapiens [2]) [ng/mL] | Tmax (Homo sapiens [3]) [h] | Activity (Plasma) [ng/mL] | Structure (SMILES) | Activity (Homo sapiens [4]) | Activity (Homo sapiens [5]) | Activity (Homo sapiens [6]) | Activity (Homo sapiens [7]) | Activity (Homo sapiens [8])
1 | 38516 | 1185 | 47.9 | – | CCN(CC)Cc1cc(Nc2ccnc3cc(Cl)ccc23)ccc1O.Cl | – | – | – | – | –
2 | – | – | – | 156.6 | CCNCc1cc(Nc2ccnc3cc(Cl)ccc23)ccc1O [DESETHYL AMODIAQUINE] | Toxic | Toxic | Toxic | Toxic | Toxic
